Measurements reported in ChEMBL document CHEMBL5143714, “Discovery of BMS-986339, a Pharmacologically Differentiated Farnesoid X Receptor Agonist for the Treatment of Nonalcoholic Steatohepatitis” (J Med Chem, 2022).
pEC50, pIC50: −log10 of the molar value.

What was measured:
Bile acid receptor = target: T1, Bile acid receptor (Homo sapiens, UniProt Q96RI1); experiment: Agonist activity at Gal4-fused human FXR in HEK293 cells incubated for 15 min by luciferase reporter assay; format: cell-based
T1 sequence (Q96RI1 whole entry): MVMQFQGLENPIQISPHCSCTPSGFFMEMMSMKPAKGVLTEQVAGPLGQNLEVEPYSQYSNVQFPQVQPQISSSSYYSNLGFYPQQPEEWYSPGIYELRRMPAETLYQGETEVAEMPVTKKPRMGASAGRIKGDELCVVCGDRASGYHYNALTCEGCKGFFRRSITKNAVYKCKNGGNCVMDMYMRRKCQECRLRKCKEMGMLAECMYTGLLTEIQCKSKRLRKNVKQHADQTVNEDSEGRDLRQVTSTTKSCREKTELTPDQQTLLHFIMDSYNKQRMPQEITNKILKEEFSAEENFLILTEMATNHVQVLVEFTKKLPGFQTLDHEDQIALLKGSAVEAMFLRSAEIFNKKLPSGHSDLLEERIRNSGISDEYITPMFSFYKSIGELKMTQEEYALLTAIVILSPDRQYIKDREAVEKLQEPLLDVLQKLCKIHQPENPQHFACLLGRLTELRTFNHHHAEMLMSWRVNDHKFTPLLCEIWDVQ

Cytochrome P450 2C19 = Cytochrome P450 2C19 (Homo sapiens, UniProt P33261); experiment: Inhibition of recombinant CYP2C19 (unknown origin) using fluorogenic substrate preincubated for 15 min followed by NADPH addition measured after 2 hrs by fluorescence method; format: ADME
[1] = Metabolic stability in mouse liver microsome assessed as parent compound remaining at […] measured after 10 mins; format: ADME; details: liver microsomes, read-out: Stability
[2] = target: T2, Nuclear receptor subfamily 1 group I member 2 (Homo sapiens, UniProt O75469); experiment: Transactivation of PXR (unknown origin) relative to refampicin; format: ADME
T2 sequence (O75469 whole entry): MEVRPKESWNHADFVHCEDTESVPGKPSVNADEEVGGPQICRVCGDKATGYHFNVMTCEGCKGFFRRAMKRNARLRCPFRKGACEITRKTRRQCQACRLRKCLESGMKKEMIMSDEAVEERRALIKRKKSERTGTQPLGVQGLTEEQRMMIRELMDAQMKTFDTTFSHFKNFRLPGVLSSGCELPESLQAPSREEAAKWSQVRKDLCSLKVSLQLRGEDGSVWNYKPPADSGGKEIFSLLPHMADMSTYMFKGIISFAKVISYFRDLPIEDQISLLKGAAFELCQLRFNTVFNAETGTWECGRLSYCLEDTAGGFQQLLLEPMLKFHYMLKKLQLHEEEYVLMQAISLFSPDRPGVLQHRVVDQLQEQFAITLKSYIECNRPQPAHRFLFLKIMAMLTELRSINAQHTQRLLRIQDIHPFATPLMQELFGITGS

[3] = target: T2, Nuclear receptor subfamily 1 group I member 2; experiment: Transactivation of PXR (unknown origin); format: ADME
[4] = Metabolic stability in human liver microsome assessed as parent compound remaining at […] measured after 10 mins; format: ADME; details: liver microsomes, read-out: Stability
Cytochrome P450 2C9 = Cytochrome P450 2C9 (Homo sapiens, UniProt P11712); experiment: Inhibition of recombinant CYP2C9 (unknown origin) using fluorogenic substrate preincubated for 15 min followed by NADPH addition measured after 2 hrs by fluorescence method; format: ADME
[5] = Metabolic stability in rat liver microsome assessed as parent compound remaining at […] measured after 10 mins; format: ADME; details: liver microsomes, read-out: Stability
[6] = Metabolic stability in mouse liver microsome assessed as parent compound remaining at 1 mg/mL measured after 10 mins; format: ADME; details: liver microsomes, read-out: Stability
[7] = Metabolic stability in human liver microsome assessed as parent compound remaining at 1 mg/mL measured after 10 mins; format: ADME; details: liver microsomes, read-out: Stability
[8] = Metabolic stability in rat liver microsome assessed as parent compound remaining at 1 mg/mL measured after 10 mins; format: ADME; details: liver microsomes, read-out: Stability

Cytochrome P450 2C9, sequence (P11712 whole entry): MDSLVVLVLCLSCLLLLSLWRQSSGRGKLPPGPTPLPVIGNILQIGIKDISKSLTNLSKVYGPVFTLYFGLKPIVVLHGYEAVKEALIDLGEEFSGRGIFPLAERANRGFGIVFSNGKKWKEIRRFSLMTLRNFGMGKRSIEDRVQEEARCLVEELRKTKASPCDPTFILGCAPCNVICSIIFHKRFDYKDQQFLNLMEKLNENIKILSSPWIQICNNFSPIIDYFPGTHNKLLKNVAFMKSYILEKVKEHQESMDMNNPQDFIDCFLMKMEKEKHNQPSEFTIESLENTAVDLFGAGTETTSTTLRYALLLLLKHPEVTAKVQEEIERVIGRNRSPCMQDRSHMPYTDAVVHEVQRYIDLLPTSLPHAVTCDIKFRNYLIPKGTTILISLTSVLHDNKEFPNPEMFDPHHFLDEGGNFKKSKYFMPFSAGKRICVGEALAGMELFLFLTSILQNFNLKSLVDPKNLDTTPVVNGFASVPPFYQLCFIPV
Cytochrome P450 2C19, sequence (P33261 whole entry): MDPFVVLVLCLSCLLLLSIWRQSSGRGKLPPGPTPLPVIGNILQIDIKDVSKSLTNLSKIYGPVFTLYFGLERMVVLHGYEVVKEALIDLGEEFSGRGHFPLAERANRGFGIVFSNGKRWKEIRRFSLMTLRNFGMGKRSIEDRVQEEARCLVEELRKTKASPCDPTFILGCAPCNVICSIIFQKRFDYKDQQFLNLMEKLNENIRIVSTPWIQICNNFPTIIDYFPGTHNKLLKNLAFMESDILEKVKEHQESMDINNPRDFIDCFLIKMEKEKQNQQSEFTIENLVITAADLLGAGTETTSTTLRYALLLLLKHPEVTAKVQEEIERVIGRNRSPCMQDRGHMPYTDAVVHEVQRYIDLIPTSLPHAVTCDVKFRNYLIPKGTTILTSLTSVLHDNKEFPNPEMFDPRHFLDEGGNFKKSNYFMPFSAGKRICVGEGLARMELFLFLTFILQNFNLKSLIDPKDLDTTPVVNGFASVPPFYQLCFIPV

Row | pEC50 (Bile acid receptor) | pIC50 (Cytochrome P450 2C19) | remaining at 10 min [1] | Emax [2] | pEC50 [3] | remaining at 10 min [4] | pIC50 (Cytochrome P450 2C9) | remaining at 10 min [5] | remaining at 10 min [6] | remaining at 10 min [7] | remaining at 10 min, 1 mg/mL [8] | SMILES
1 | 6.82 | 5.00 | 86% | 10% | 4.30 | 69% | 6.00 | 73% | – | – | – | CCOc1ncc(-c2cccc(N(CC34CCC(c5noc(C(C)(C)C)n5)(CC3)CC4)C(=O)[C@H]3C[C@](O)(C(F)(F)F)C3)c2)cn1
2 | 5.79 | 4.89 | 71% | 11% | 4.30 | 98% | 4.70 | 37% | – | – | – | CN1CCC(C(=O)N(CC23CCC(c4nc(C5CC5)no4)(CC2)CC3)c2cccc(-c3nc(C4CC4)no3)c2)CC1
3 | 7.60 | 5.05 | 99% | 13% | 4.30 | 100% | 5.30 | 100% | – | – | – | CC(C)(O)c1ccc(-c2cccc(N(CC34CCC(c5noc(C(C)(C)F)n5)(CC3)CC4)C(=O)[C@H]3C[C@@](C)(O)C3)c2)cc1
4 | 6.94 | 4.70 | 8% | – | – | 86% | 6.00 | 0% | – | – | – | O=C(C1CCOCC1)N(CC12CCC(c3nc(C4CC4)no3)(CC1)CC2)c1cccc(-c2nc(C3CC3)no2)c1
5 | – | 5.05 | 84% | 37% | 5.82 | 64% | 6.00 | 44% | – | – | – | CCOc1ncc(-c2cccc(N(CC34CCC(c5noc(C(C)(C)C)n5)(CC3)CC4)C(=O)[C@H]3C[C@@](C)(O)C3)c2)cn1
6 | – | 5.70 | 100% | 25% | 6.00 | 100% | 5.70 | 99% | – | – | – | O=C(N(CC12CCC(c3nc(C4CC4)no3)(CC1)CC2)c1cccc(-c2nc(C3CC3)no2)c1)C12CC(F)(C1)C2
7 | 7.54 | 5.05 | 92% | 19% | 4.30 | 97% | 5.52 | 81% | – | – | – | CC(C)(C)c1nc(C23CCC(CN(C(=O)C45CC(F)(C4)C5)c4cccc(-c5nc(C6CC6)no5)c4)(CC2)CC3)no1
8 | 6.83 | 6.52 | 82% | 35% | 5.10 | 100% | 4.70 | 23% | – | – | – | O=C(C1CCC(F)(F)CC1)N(CC12CCC(c3nc(C4CC4)no3)(CC1)CC2)c1cccc(-c2nc(C3CC3)no2)c1
9 | 7.23 | – | – | – | – | – | – | – | – | – | – | CCOc1cc(-c2cccc(N(CC34CCC(c5nc(C6CC6)no5)(CC3)CC4)C(=O)C3CCCCC3)c2)no1
10 | 6.95 | – | – | – | – | – | – | – | – | – | – | COC(=O)/C=C/c1cccc(N(CC23CCC(c4ccc(C5CC5)cc4)(CC2)CC3)C(=O)C2CCCCC2)c1
11 | 7.24 | – | – | – | – | – | – | – | 4% | 6% | 31% | COC(=O)/C=C/c1cccc(N(CC23CCC(c4nc(C)no4)(CC2)CC3)C(=O)C2CCCCC2)c1
12 | 7.04 | – | – | – | – | – | – | – | – | – | – | COc1cccc(-c2cccc(N(CC34CCC(c5nc(C6CC6)no5)(CC3)CC4)C(=O)C3CCCCC3)c2)c1
13 | 7.36 | 4.70 | 34% | 21% | 5.22 | 38% | 4.70 | 4% | – | – | – | O=C(C1CCCCC1)N(CC12CCC(c3nc(C4CC4)no3)(CC1)CC2)c1cccc(-c2nc(C3CC3)no2)c1
14 | – | 4.77 | 100% | 62% | 6.00 | 98% | 6.00 | 72% | – | – | – | O=C(C1CC(F)(F)C1)N(CC12CCC(c3nc(C4CC4)no3)(CC1)CC2)c1cccc(-c2nc(C3CC3)no2)c1
15 | – | 5.10 | 58% | 9% | 4.30 | 94% | 5.70 | 79% | – | – | – | CCOc1ccc(-c2cccc(N(CC34CCC(c5noc(C(C)(C)C)n5)(CC3)CC4)C(=O)C34CC(F)(C3)C4)c2)cn1
16 | 5.96 | 5.10 | 100% | 48% | 5.40 | 100% | 5.10 | 10% | – | – | – | O=C(C1CCS(=O)(=O)CC1)N(CC12CCC(c3nc(C4CC4)no3)(CC1)CC2)c1cccc(-c2nc(C3CC3)no2)c1
17 | 7.15 | 4.70 | 100% | 11% | 4.30 | 100% | 4.70 | 86% | – | – | – | CC(C)(C)c1noc(C23CCC(CN(C(=O)C45CC(F)(C4)C5)c4cccc(-c5nc(C6CC6)no5)c4)(CC2)CC3)n1
18 | 7.39 | 5.22 | 77% | 9% | 4.30 | 100% | 6.00 | 80% | – | – | – | CCOc1ncc(-c2cccc(N(CC34CCC(c5noc(C(C)(C)C)n5)(CC3)CC4)C(=O)C34CC(F)(C3)C4)c2)cn1
19 | 6.04 | – | – | – | – | – | – | – | – | – | – | CCOC(=O)c1nc(-c2cccc(N(CC34CCC(c5nc(C6CC6)no5)(CC3)CC4)C(=O)C3CCCCC3)c2)cs1
20 | 6.52 | – | – | – | – | – | – | – | – | – | – | COC(=O)/C=C/c1cccc(N(CC23CCC(c4ccc(N5CCCC5)cc4)(CC2)CC3)C(=O)C2CCCCC2)c1
21 | 6.93 | – | – | – | – | – | – | – | – | – | – | COC(=O)/C=C/c1cccc(N(CC23CCC(c4ccc(N5CCOCC5)cc4)(CC2)CC3)C(=O)C2CCCCC2)c1
22 | 7.02 | – | – | – | – | – | – | – | – | – | – | COc1cc(-c2cccc(N(CC34CCC(c5nc(C6CC6)no5)(CC3)CC4)C(=O)C3CCCCC3)c2)ccn1
23 | 6.77 | 5.15 | 84% | 28% | 5.70 | 88% | 5.70 | 64% | – | – | – | CCOc1ncc(-c2cccc(N(CC34CCC(c5noc(C(F)F)n5)(CC3)CC4)C(=O)C34CC(F)(C3)C4)c2)cn1
24 | 7.35 | 6.00 | 52% | – | – | 76% | – | 60% | – | – | – | CC(C)(C)c1nc(C23CCC(CN(C(=O)C45CC(F)(C4)C5)c4cccc(-c5nnc(C6CC6)o5)c4)(CC2)CC3)no1
